According to patent US20190031665A1, “DERIVATIVES OF PYRROLOIMIDAZOLE OR ANALOGUES THEREOF WHICH ARE USEFUL FOR THE TREATMENT OF INTER ALIA CANCER” (EMCURE PHARMACEUTICALS LIMITED, priority 2016, published 2019):

Tests used:
[1] = target: T1, human tryptophan 2,3-dioxygenase (hTDO) (Homo sapiens, UniProt P48775); assay: In-vitro human tryptophan 2,3-dioxygenase (TDO) enzyme assay; assay type: biochemical; conditions: for inhibition at 1 µM: hTDO enzyme at 1.0 μM concentration; for inhibition at 10 µM: hTDO enzyme at 10.0 μM concentration
T1 construct: His tag (N); purchased BPS Bioscience, San Diego, Calif., USA; host or cells: E. coli
Description: (§1) In the in-vitro human tryptophan 2,3-dioxygenase (hTDO) enzyme assay for screening inhibitor compounds, hTDO with an N-terminal histidine tag expressed and purified from E. coli (BPS Bioscience, San Diego, Calif., USA) was used. All other materials were procured from Sigma-Aldrich, St. Louis, Mo., USA.
The assay monitoring method for the conversion of L-tryptophan to N-formylkynurenine by hTDO was carried out as follows. hTDO (125 ng) was incubated in the presence of 200 μM L-tryptophan, 100 mM sodium phosphate buffer (pH 7.0), 0.01% Tween-20 and 100 μM ascorbic acid at about 37° C. for about 60 minutes. The reaction was terminated with 200 mM piperidine (PIP) and further incubated at about 65° C. for about 20 minutes to convert N-formylkynurenine (NFK) to NFK-PIP. The reaction mixture was then incubated at room temperature for about 75 minutes. The fluorescence intensity was read in a fluorescence microplate reader at an excitation wavelength of 400 nm and emission wavelength of 500 nm. Percent inhibition at each concentration of test compounds was determined by estimating the decrease in NFK-PIP. Data were analyzed using nonlinear regression to generate IC50 values using Graph Pad Prism® 6.

[2] = target: T2, human indoleamine 2,3-dioxygenase 1 (hIDO1) (Homo sapiens, UniProt P14902); assay: In-vitro human indoleamine 2,3-dioxygenase 1 (IDO1) enzyme assay; assay type: biochemical; conditions: for inhibition at 1 µM: hIDO1 enzyme at 1.0 μM concentration; for inhibition at 10 µM: hIDO1 enzyme at 10.0 μM concentration; for IC50: hIDO1 enzyme
T2 construct: His tag (N); purchased BPS Bioscience, San Diego, Calif., USA; host or cells: E. coli
Description: as §1, with “In-vitro human indoleamine 2,3-dioxygenase 1 (IDO1) enzyme assay: In” for “In”, “indoleamine” for “tryptophan”, “1 (hIDO1)” for “(hTDO)”, “hIDO1” for “hTDO”
The assay method for monitoring the conversion of L-tryptophan to N-formylkynurenine by hlDO1 was carried out as follows. hlDO1 (50 ng) was incubated with tryptophan (80 μM) in the presence of ascorbic acid (10 mM), methylene blue (10 μM), catalase (100 μg/ml) and 0.01% Tween-20 in sodium phosphate buffer (50 mM; pH 6.5) at 37° C. for 60 min. The reaction was terminated with 200 mM piperidine (PIP) and further incubated at about 65° C. for about 20 minutes to convert N-formylkynurenine (NFK) to NFK-PIP. The reaction mixture was then incubated at room temperature for about 1 hour. The fluorescence intensity was read in a fluorescence microplate reader at an excitation wavelength of 400 nm and emission wavelength of 500 nm. Percent inhibition at each concentration of test compounds was determined by estimating the decrease in NFK-PIP. Data were analyzed using nonlinear regression to generate IC50 values using Graph Pad Prism® 6.

T1 sequence (P48775 whole entry): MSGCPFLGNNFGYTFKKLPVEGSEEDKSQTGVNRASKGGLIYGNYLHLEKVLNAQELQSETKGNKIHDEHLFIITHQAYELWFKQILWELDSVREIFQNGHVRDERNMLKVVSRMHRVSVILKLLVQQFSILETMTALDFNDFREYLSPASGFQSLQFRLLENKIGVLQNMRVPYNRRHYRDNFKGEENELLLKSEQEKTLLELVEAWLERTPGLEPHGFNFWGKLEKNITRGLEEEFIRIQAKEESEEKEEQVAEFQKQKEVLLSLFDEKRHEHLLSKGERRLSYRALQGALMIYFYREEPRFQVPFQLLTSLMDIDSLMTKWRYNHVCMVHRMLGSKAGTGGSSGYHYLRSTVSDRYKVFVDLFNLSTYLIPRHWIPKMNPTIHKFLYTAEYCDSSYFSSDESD
T2 sequence (P14902 whole entry): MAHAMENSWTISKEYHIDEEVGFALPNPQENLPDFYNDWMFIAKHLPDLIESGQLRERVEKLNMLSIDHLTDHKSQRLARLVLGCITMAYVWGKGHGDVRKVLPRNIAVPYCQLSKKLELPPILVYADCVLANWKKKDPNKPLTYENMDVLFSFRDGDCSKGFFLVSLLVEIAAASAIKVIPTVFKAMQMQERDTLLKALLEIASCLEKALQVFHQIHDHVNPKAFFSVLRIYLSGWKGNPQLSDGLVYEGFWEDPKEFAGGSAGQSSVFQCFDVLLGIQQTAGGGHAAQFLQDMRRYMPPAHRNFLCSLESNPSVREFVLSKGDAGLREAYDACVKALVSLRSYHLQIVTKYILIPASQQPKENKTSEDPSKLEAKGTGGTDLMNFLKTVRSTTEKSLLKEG

Row | SMILES | inhibition at 1 µM [1] [%] | inhibition at 1 µM [2] [%] | inhibition at 10 µM [2] [%] | IC50 [2] [nM] | inhibition at 10 µM [1] [%]
1 | CC1=C(c2ccccc2)C(CC(=O)c2ccc(N3CCCCC3)cc2)n2cncc21 (centres unmarked) [Example 50, 2-(7-methyl-6-phenyl-5H-pyrrolo[1,2-c]imidazol-5-yl)-1-(4-(piperidin-1-yl)phenyl)ethan-1-one] | ≥ 50 | ≤ 50 | ≥ 50 |  | 
2 | CC1=C(c2ccccc2)C(CC(O)c2ccc(Br)cc2)n2cncc21 (centres unmarked) [Example 52, 1-(4-bromophenyl)-2-(7-methyl-6-phenyl-5H-pyrrolo[1,2-c]imidazol-5-yl)ethan-1-ol] | ≥ 50 | ≤ 50 | ≥ 50 |  | 
3 | CC1=C(c2ccccc2)C(CC(O)c2ccc(-c3ccsc3)cc2)n2cncc21 (centres unmarked) [Example 60] | ≤ 50 | ≤ 50 | ≥ 50 |  | 
4 | CC1=C(c2ccccc2)C(CC(=O)c2cccc(Br)c2)n2cncc21 (centres unmarked) [Example 68, 1-(3-Bromo-phenyl)-2-(7-methyl-6-phenyl-5H-pyrrolo[1,2-c]imidazol-5-yl)-ethanone] | ≥ 50 | ≥ 50 | ≥ 50 |  | 
5 | CC1=C(c2ccccc2)C(CC(=O)c2cccc(-c3ccccc3F)c2)n2cncc21 (centres unmarked) [Example 70] | ≥ 50 | ≥ 50 | ≥ 50 |  | 
6 | CC1=C(c2ccccc2)C(CC(=O)c2ccc(C3CCCCC3)cc2)n2cncc21 (centres unmarked) [Example 73] | ≤ 50 | ≤ 50 | ≥ 50 |  | 
7 | CC1=C(c2ccccc2)C(CC(O)c2ccc(C3CCCCC3)cc2)n2cncc21 (centres unmarked) [Example 74] | ≤ 50 | ≤ 50 | ≥ 50 |  | 
8 | CC1=C(c2ccccc2)C(CC(=O)c2ccc(C(=O)Nc3ccccc3)cc2)n2cncc21 (centres unmarked) [Example 77] | ≥ 50 | ≥ 50 | ≥ 50 | < 500 | 
9 | CNC(=O)c1ccc(C(=O)CC2C(c3ccccc3)=C(C)c3cncn32)cc1 (centres unmarked) [Example 78] | ≥ 50 | ≥ 50 | ≥ 50 |  | ≥ 50
10 | CC1=C(c2ccccc2)C(CC(=O)c2ccc(C(=O)Nc3ccc(Cl)cc3)cc2)n2cncc21 (centres unmarked) [Example 80] | ≥ 50 | ≥ 50 | ≥ 50 |  | 
11 | CC1=C(c2ccccc2)C(CC(=O)c2ccc(C(=O)Nc3ccc(F)cc3F)cc2)n2cncc21 (centres unmarked) [Example 81] | ≥ 50 | ≥ 50 | ≥ 50 | < 500 | 
12 | CC1=C(c2ccccc2)C(CC(O)c2ccc(C(=O)Nc3ccc(Cl)cc3)cc2)n2cncc21 (centres unmarked) [Example 82] | ≤ 50 | ≤ 50 | ≥ 50 |  | 
13 | CC1=C(c2ccccc2)C(CC(=O)c2ccc(C(=O)Nc3ccc(C)cc3C)cc2)n2cncc21 (centres unmarked) [Example 84] | ≥ 50 | ≥ 50 | ≥ 50 |  | 
14 | CC1=C(c2ccc(C)cc2)C(CC(=O)C2CCCCC2)n2cncc21 (centres unmarked) [Example 86, 1-Cyclohexyl-2-(7-methyl-6-(p-tolyl)-5H-pyrrolo[1,2-c]imidazol-5-yl)ethan-1-one] | ≥ 50 | ≤ 50 | ≤ 50 |  | 
15 | CC1=C(c2ccc(C)cc2)C(CC(O)C2CCCCC2)n2cncc21 (centres unmarked) [Example 87, 1-Cyclohexyl-2-(7-methyl-6-(p-tolyl)-5H-pyrrolo[1,2-c]imidazol-5-yl)ethan-1-ol] | ≥ 50 | ≤ 50 | ≥ 50 |  | 
16 | CC1=C(c2ccccc2)C(CC(=O)C2CCCCC2)n2cncc21 (centres unmarked) [Example 88, 1-Cyclohexyl-2-(7-methyl-6-phenyl-5H-pyrrolo[1,2-c]imidazol-5-yl)-ethanone] | ≥ 50 |  | ≥ 50 | > 500 | ≥ 50

Next, values leading:

Row | inhibition at 1 µM [1] [%] | inhibition at 1 µM [2] [%] | inhibition at 10 µM [2] [%] | IC50 [2] [nM] | inhibition at 10 µM [1] [%] | SMILES
17 | ≥ 50 | ≥ 50 | ≥ 50 | > 500 |  | CC1=C(c2ccccc2)C(CC(=O)c2ccc(Br)cc2)n2cncc21 (centres unmarked) [Example 51, 1-(4-bromophenyl)-2-(7-methyl-6-phenyl-5H-pyrrolo[1,2-c]imidazol-5-yl)ethan-1-one]
18 | ≥ 50 | ≥ 50 | ≥ 50 | < 500 |  | CC1=C(c2ccccc2)C(CC(=O)c2ccc(-c3ccncc3)cc2)n2cncc21 (centres unmarked) [Example 53]
19 | ≥ 50 | ≥ 50 | ≥ 50 |  |  | CC1=C(c2ccccc2)C(CC(=O)c2ccc(-c3cncnc3)cc2)n2cncc21 (centres unmarked) [Example 54]
20 | ≥ 50 | ≥ 50 | ≥ 50 | < 500 |  | CC1=C(c2ccccc2)C(CC(=O)c2ccc(-c3cccnc3)cc2)n2cncc21 (centres unmarked) [Example 55]
21 | ≤ 50 | ≥ 50 | ≥ 50 | < 500 |  | CC1=C(c2ccccc2)C(CC(=O)c2ccc(-c3ccsc3)cc2)n2cncc21 (centres unmarked) [Example 56]
22 | ≤ 50 | ≥ 50 | ≥ 50 | < 500 |  | CC1=C(c2ccccc2)C(CC(=O)c2ccc(-c3ccc(O)cc3)cc2)n2cncc21 (centres unmarked) [Example 57]
23 | ≤ 50 | ≥ 50 | ≥ 50 | < 500 |  | CC1=C(c2ccccc2)C(CC(=O)c2ccc(-c3ccccc3F)cc2)n2cncc21 (centres unmarked) [Example 58]
24 | ≤ 50 | ≤ 50 | ≥ 50 |  |  | CC1=C(c2ccccc2)C(CC(O)c2ccc(-c3ccncc3)cc2)n2cncc21 (centres unmarked) [Example 59]
25 | ≤ 50 | ≤ 50 | ≥ 50 |  |  | CC1=C(c2ccccc2)C(CC(=O)c2ccc(-c3ccc(C(F)(F)F)cc3)cc2)n2cncc21 (centres unmarked) [Example 61]
26 | ≥ 50 | ≥ 50 | ≥ 50 | < 500 |  | CC1=C(c2ccccc2)C(CC(=O)c2ccc(-c3ccc(C)cc3)cc2)n2cncc21 (centres unmarked) [Example 62]
27 | ≥ 50 | ≥ 50 | ≥ 50 |  |  | CC1=C(c2ccccc2)C(CC(=O)c2ccc(-c3ccc(F)cc3)cc2)n2cncc21 (centres unmarked) [Example 63]
28 | ≤ 50 | ≥ 50 | ≥ 50 | < 500 |  | CC1=C(c2ccccc2)C(CC(=O)c2ccc(-c3ccc(C)s3)cc2)n2cncc21 (centres unmarked) [Example 64]
29 | ≤ 50 | ≤ 50 | ≤ 50 |  |  | CC1=C(c2ccccc2)C(CC(=O)c2ccc(-c3ccc(-c4ccccc4)cc3)cc2)n2cncc21 (centres unmarked) [Example 65]
30 | ≥ 50 | ≥ 50 | ≥ 50 | > 500 |  | CC1=C(c2ccccc2)C(CC(=O)c2ccc(-c3cnc[nH]3)cc2)n2cncc21 (centres unmarked) [Example 67]
31 | ≤ 50 | ≥ 50 | ≥ 50 | > 500 |  | CC1=C(c2ccccc2)C(CC(=O)c2cccc(-c3ccccc3)c2)n2cncc21 (centres unmarked) [Example 69]
32 | ≥ 50 | ≥ 50 | ≥ 50 | < 500 |  | CC1=C(c2ccccc2)C(CC(=O)c2ccc(OCc3ccccc3)cc2)n2cncc21 (centres unmarked) [Example 75, 1-(4-(benzyloxy)phenyl)-2-(7-methyl-6-phenyl-5H-pyrrolo[1,2-c]imidazol-5-yl)ethan-1-one]
33 | ≤ 50 | ≥ 50 | ≥ 50 | < 500 |  | CC1=C(c2ccccc2)C(CC(=O)c2ccc(Oc3ccccc3F)cc2)n2cncc21 (centres unmarked) [Example 76, 1-(4-(2-fluorophenoxy)phenyl)-2-(7-methyl-6-phenyl-5H-pyrrolo[1,2-c]imidazol-5-yl)ethan-1-one]
34 | ≥ 50 | ≥ 50 | ≥ 50 | > 500 |  | CC1=C(c2ccccc2)C(CC(=O)c2ccc(C(=O)Nc3cccnc3)cc2)n2cncc21 (centres unmarked) [Example 79]
